# From publication PMC7347136 (PLoS ONE, 2020)
# Assays:
# Experiment in all cases: Carna kinase panel screen
# Format in all cases: biochemical
# Settings in all cases: read-out: % Inhibition ± SD
# ARG = biological target: T1, ARG (Homo sapiens, UniProt P42684)
# T1 construct: purchased Carna Biosciences
# Method in brief: (§1)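 10-pt curves; [ATP] ~Km; IC50 by 4PL fit of % inhibition.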
# BTK = biological target: T2, BTK (Homo sapiens, UniProt Q06187)
# T2 construct: purchased Carna Biosciences
# Method in brief: (§2)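 ATP was used at roughly Km levels while compounds were titrated over a 10-point curve. IC50 values came from four-parameter logistic fits of concentration versus percentage inhibition.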
# CDK4 = biological target: T3, CDK4 (Homo sapiens, UniProt P11802)
# T3 construct: purchased Carna Biosciences
# Method in brief: (§3)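 With ATP concentrations near the respective Km, a 10-point titration of each compound was run. Percent inhibition values were fitted (four-parameter logistic) to determine IC50.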
# CDK5 = biological target: T4, CDK5 (Homo sapiens, UniProt Q00535)
# T4 construct: purchased Carna Biosciences
# Method in brief: as §2
# CK1e = biological target: T5, CK1e (Homo sapiens, UniProt P49674)
# T5 construct: purchased Carna Biosciences
# Method in brief: as §2
# CaMK1a = biological target: T6, CaMK1a (Homo sapiens, UniProt Q14012)
# T6 construct: purchased Carna Biosciences
# T6 sequence (Q14012 whole entry): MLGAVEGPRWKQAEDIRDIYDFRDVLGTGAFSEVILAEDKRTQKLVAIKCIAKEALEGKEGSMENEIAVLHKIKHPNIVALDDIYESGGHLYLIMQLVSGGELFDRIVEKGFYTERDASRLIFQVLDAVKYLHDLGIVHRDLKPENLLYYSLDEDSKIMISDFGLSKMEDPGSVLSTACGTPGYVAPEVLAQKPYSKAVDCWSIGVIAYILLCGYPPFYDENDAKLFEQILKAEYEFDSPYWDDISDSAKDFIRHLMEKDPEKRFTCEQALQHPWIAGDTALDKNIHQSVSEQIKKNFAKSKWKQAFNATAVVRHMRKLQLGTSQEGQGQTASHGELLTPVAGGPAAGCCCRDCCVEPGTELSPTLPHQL
# Method in brief: as §2
# CaMK1d = biological target: T7, CaMK1d (Homo sapiens, UniProt Q8IU85)
# T7 construct: purchased Carna Biosciences
# T7 sequence (Q8IU85 whole entry): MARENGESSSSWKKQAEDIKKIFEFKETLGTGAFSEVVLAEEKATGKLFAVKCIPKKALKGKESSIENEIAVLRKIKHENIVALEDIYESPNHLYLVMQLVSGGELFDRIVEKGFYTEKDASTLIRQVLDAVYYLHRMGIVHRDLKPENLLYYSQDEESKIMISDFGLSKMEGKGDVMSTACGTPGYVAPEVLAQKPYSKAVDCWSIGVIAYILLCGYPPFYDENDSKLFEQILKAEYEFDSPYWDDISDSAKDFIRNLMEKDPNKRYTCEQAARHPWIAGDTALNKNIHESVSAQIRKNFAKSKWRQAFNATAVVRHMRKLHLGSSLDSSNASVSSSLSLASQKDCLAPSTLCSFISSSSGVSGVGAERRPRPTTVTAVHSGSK
# Method in brief: as §2
# CaMK2g = biological target: T8, CaMK2g (Homo sapiens, UniProt Q13555)
# T8 construct: purchased Carna Biosciences
# Method in brief: as §3
# DDR2 = biological target: T9, DDR2 (Homo sapiens, UniProt Q16832)
# T9 construct: purchased Carna Biosciences
# Method in brief: as §2
# DYRK1B = biological target: T10, DYRK1B (Homo sapiens, UniProt Q9Y463)
# T10 construct: purchased Carna Biosciences
# Method in brief: as §2
# EGFR = biological target: T11, EGFR (Homo sapiens, UniProt P00533)
# T11 construct: purchased Carna Biosciences
# Method in brief: as §3
# EphA3 = biological target: T12, EphA3 (Homo sapiens, UniProt P29320)
# T12 construct: purchased Carna Biosciences
# Method in brief: as §2
# EphA5 = biological target: T13, EphA5 (Homo sapiens, UniProt P54756)
# T13 construct: purchased Carna Biosciences
# Method in brief: as §2
# EphA6 = biological target: T14, EphA6 (Homo sapiens, UniProt Q9UF33)
# T14 construct: purchased Carna Biosciences
# Method in brief: as §2
# Erk2 = biological target: T15, Erk2 (Homo sapiens, UniProt P28482)
# T15 construct: purchased Carna Biosciences
# T15 sequence (P28482 whole entry): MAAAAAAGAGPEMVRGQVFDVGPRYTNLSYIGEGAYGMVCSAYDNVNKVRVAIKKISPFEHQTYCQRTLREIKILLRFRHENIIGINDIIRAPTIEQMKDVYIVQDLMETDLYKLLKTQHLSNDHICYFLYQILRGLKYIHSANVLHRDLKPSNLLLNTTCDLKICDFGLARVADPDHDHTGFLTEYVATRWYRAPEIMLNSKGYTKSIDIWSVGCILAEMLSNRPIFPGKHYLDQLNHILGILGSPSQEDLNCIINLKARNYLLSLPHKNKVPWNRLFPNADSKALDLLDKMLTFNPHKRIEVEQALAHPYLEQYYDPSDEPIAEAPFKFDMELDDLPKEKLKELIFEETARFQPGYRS
# Method in brief: as §2
# FER = biological target: T16, FER (Homo sapiens, UniProt P16591)
# T16 construct: purchased Carna Biosciences
# Method in brief: as §2
# JAK2 = biological target: T17, JAK2 (Homo sapiens, UniProt O60674)
# T17 construct: purchased Carna Biosciences
# Method in brief: as §2
# JNK3 = biological target: T18, JNK3 (Homo sapiens, UniProt P53779)
# T18 construct: purchased Carna Biosciences
# Method in brief: as §2
# LCK = biological target: T19, LCK (Homo sapiens, UniProt P06239)
# T19 construct: purchased Carna Biosciences
# Method in brief: as §2
# MAP2K1 = biological target: T20, MAP2K1 (Homo sapiens, UniProt Q02750)
# T20 construct: purchased Carna Biosciences
# T20 sequence (Q02750 whole entry): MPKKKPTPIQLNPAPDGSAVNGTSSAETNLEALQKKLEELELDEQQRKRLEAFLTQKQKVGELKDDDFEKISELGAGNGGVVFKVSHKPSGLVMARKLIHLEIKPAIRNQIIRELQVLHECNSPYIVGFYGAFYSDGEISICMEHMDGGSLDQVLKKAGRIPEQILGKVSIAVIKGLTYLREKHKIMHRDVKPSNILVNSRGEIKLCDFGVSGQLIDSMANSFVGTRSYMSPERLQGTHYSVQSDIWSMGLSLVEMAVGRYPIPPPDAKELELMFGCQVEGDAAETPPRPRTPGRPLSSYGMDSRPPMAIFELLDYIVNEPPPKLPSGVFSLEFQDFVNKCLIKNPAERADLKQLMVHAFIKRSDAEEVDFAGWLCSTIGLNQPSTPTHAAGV
# Method in brief: as §2
# MAP2K2 = biological target: T21, MAP2K2 (Homo sapiens, UniProt P36507)
# T21 construct: purchased Carna Biosciences
# Method in brief: as §2
# MARK2 = biological target: T22, MARK2 (Homo sapiens, UniProt Q7KZI7)
# T22 construct: purchased Carna Biosciences
# Method in brief: as §2
# MET[Y1235D] = biological target: T23, MET[Y1235D] (Homo sapiens, UniProt P08581, Y1235D)
# T23 construct: purchased Carna Biosciences
# Method in brief: as §2
# MNK2 = biological target: T24, MNK2 (Homo sapiens, UniProt Q9HBH9)
# T24 construct: purchased Carna Biosciences
# Method in brief: as §2
# MST4 = biological target: T25, MST4 (Homo sapiens, UniProt Q9P289)
# T25 construct: purchased Carna Biosciences
# Method in brief: as §2
# NEK1 = biological target: T26, NEK1 (Homo sapiens, UniProt Q96PY6)
# T26 construct: purchased Carna Biosciences
# T26 sequence (Q96PY6 whole entry): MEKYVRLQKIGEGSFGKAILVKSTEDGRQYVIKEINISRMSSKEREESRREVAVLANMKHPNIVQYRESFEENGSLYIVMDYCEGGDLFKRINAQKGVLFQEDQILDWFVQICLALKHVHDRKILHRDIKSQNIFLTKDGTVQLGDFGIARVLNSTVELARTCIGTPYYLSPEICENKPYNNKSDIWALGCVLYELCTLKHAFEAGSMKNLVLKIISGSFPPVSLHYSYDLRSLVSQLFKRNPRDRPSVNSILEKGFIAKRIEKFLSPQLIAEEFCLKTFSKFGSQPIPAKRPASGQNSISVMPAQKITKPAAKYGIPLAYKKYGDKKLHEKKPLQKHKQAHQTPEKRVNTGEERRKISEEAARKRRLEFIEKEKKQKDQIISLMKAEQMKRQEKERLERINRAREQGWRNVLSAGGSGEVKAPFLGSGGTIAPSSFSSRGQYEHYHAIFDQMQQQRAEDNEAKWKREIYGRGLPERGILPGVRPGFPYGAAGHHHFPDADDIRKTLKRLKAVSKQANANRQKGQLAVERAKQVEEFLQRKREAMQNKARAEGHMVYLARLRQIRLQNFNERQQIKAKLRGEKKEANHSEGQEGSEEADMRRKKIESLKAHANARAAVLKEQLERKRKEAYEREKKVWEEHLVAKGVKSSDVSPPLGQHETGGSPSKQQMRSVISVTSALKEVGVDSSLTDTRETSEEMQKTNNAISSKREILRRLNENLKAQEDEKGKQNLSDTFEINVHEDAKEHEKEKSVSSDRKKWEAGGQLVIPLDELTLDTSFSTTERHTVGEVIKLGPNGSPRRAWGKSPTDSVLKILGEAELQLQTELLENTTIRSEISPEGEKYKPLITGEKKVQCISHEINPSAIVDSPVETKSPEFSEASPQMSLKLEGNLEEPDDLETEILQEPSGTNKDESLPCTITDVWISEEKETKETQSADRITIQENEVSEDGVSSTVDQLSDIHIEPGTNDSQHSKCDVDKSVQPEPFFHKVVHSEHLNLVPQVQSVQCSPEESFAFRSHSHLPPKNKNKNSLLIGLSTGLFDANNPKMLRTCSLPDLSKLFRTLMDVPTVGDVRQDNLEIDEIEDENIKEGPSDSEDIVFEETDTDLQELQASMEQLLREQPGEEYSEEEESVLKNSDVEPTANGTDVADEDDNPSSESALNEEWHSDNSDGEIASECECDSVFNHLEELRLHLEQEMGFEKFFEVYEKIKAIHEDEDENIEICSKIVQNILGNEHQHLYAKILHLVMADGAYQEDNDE
# Method in brief: as §1
# NEK2 = biological target: T27, NEK2 (Homo sapiens, UniProt P51955)
# T27 construct: purchased Carna Biosciences
# Method in brief: as §2
# NEK9 = biological target: T28, NEK9 (Homo sapiens, UniProt Q8TD19)
# T28 construct: purchased Carna Biosciences
# T28 sequence (Q8TD19 whole entry): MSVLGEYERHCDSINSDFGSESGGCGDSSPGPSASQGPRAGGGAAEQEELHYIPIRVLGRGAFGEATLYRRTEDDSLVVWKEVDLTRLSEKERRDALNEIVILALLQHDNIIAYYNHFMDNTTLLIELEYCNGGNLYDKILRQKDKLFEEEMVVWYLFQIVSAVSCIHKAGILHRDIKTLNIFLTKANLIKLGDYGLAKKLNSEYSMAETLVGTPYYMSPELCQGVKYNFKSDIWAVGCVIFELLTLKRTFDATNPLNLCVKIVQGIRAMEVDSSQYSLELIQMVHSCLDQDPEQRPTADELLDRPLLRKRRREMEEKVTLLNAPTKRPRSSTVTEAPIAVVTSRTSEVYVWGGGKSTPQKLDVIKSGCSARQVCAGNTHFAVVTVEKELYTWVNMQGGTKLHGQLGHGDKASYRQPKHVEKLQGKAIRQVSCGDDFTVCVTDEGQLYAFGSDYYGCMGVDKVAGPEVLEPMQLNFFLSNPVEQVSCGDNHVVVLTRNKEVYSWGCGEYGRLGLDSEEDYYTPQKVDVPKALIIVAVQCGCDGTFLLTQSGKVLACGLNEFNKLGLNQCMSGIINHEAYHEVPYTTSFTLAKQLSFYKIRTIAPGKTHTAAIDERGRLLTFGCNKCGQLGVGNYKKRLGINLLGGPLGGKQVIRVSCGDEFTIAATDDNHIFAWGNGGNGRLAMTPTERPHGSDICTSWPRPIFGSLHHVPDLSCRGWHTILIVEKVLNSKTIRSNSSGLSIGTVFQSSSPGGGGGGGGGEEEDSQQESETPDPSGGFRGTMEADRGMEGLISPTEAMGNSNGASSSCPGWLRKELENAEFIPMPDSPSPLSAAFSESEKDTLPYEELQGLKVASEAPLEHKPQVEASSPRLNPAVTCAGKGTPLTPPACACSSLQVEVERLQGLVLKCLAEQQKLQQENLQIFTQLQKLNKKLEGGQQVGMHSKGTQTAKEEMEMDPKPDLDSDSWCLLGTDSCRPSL
# Method in brief: as §2
# NuaK1 = biological target: T29, NuaK1 (Homo sapiens, UniProt O60285)
# T29 construct: purchased Carna Biosciences
# Method in brief: as §2
# PAK1 = biological target: T30, PAK1 (Homo sapiens, UniProt Q13153)
# T30 construct: purchased Carna Biosciences
# Method in brief: as §2
# PDK1 = biological target: T31, PDK1 (Homo sapiens, UniProt O15530)
# T31 construct: purchased Carna Biosciences
# Method in brief: as §2
# PHKG1 = biological target: T32, PHKG1 (Homo sapiens, UniProt Q16816)
# T32 construct: purchased Carna Biosciences
# Method in brief: as §2
# PHKG2 = biological target: T33, PHKG2 (Homo sapiens, UniProt P15735)
# T33 construct: purchased Carna Biosciences
# Method in brief: as §1
# PKACa = biological target: T34, PKACa (Homo sapiens, UniProt P17612)
# T34 construct: purchased Carna Biosciences
# Method in brief: as §2
# PKCe = biological target: T35, PKCe (Homo sapiens, UniProt Q02156)
# T35 construct: purchased Carna Biosciences
# Method in brief: as §2
# PKCg = biological target: T36, PKCg (Homo sapiens, UniProt P05129)
# T36 construct: purchased Carna Biosciences
# Method in brief: as §2
# PLK1 = biological target: T37, PLK1 (Homo sapiens, UniProt P53350)
# T37 construct: purchased Carna Biosciences
# Method in brief: as §2
# RAF1 = biological target: T38, RAF1 (Homo sapiens, UniProt P04049)
# T38 construct: purchased Carna Biosciences
# Method in brief: as §2
# SGK3 = biological target: T39, SGK3 (Homo sapiens, UniProt Q96BR1)
# T39 construct: purchased Carna Biosciences
# Method in brief: as §2
# SRC = biological target: T40, SRC (Homo sapiens, UniProt P12931)
# T40 construct: purchased Carna Biosciences
# Method in brief: as §2
# TYK2 = biological target: T41, TYK2 (Homo sapiens, UniProt P29597)
# T41 construct: purchased Carna Biosciences
# Method in brief: as §2
# TYRO3 = biological target: T42, TYRO3 (Homo sapiens, UniProt Q06418)
# T42 construct: purchased Carna Biosciences
# Method in brief: as §2
# p38a = biological target: T43, p38a (Homo sapiens, UniProt Q16539)
# T43 construct: purchased Carna Biosciences
# Method in brief: as §2
# T1 sequence (P42684 whole entry): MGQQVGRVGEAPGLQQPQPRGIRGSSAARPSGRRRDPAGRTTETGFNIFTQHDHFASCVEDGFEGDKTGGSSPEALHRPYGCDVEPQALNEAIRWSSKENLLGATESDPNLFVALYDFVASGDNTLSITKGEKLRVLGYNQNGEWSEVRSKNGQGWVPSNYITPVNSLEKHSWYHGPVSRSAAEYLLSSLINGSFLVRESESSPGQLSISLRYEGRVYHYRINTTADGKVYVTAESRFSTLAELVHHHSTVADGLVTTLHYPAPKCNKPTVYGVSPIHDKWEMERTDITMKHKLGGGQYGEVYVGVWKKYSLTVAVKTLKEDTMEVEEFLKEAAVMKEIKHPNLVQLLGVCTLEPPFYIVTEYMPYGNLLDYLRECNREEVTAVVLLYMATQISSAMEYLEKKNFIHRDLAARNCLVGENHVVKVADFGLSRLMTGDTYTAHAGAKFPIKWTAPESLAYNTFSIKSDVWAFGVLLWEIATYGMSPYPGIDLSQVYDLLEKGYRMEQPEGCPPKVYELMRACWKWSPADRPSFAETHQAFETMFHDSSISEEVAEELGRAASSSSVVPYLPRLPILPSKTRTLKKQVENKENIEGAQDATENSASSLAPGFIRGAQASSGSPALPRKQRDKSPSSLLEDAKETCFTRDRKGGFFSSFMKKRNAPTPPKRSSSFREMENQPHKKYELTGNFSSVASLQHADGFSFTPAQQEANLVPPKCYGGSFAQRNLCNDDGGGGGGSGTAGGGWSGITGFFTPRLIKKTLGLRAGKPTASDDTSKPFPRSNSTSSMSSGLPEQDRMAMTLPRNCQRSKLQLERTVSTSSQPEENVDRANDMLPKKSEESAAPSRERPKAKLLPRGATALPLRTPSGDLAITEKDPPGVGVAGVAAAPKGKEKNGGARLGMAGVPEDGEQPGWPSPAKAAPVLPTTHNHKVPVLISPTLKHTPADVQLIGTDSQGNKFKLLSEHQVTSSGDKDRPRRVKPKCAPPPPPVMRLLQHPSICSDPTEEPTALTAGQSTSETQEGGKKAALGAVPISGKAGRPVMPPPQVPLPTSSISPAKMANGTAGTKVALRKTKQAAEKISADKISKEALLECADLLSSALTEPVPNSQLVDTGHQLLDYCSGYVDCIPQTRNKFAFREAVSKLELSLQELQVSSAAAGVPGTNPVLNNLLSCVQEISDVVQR
smiles,measurement,setting,value
"CC[C@H](Nc1nc(NCc2cnc(C)cc2C)c2ncn(C(C)C)c2n1)[C@@H](C)O [Fadraciclib, 2-pentanol, 3-[[6-[[(4,6-dimethyl-3-pyridinyl)methyl]amino]-9-(1-methylethyl)-9Hpurin-2-yl]amino]-, (2R,3S)]",inhibition at 1 µM,ARG,1.8 ± 0.1%
same,inhibition at 1 µM,BTK,5.3 ± 0.4%
same,inhibition at 1 µM,CDK4,75.7 ± 5%
same,inhibition at 1 µM,CDK5,98.1 ± 4%
same,inhibition at 1 µM,CK1e,19.8 ± 0.5%
same,inhibition at 1 µM,CaMK1a,-14.8 ± 0.2%
same,inhibition at 1 µM,CaMK1d,-14.5 ± 0.1%
same,inhibition at 1 µM,CaMK2g,12.5 ± 0.4%
same,inhibition at 1 µM,DDR2,-9.9 ± 0.1%
same,inhibition at 1 µM,DYRK1B,15.5 ± 1.3%
same,inhibition at 1 µM,EGFR,-10.8 ± 0.4%
same,inhibition at 1 µM,EphA3,1.6 ± 0.1%
same,inhibition at 1 µM,EphA5,4.9 ± 0.2%
same,inhibition at 1 µM,EphA6,5.7 ± 0.3%
same,inhibition at 1 µM,Erk2,19.6 ± 0.8%
same,inhibition at 1 µM,FER,-0.3%
same,inhibition at 1 µM,JAK2,6.1 ± 0.2%
same,inhibition at 1 µM,JNK3,10.6 ± 0.6%
same,inhibition at 1 µM,LCK,-7.3 ± 0.1%
same,inhibition at 1 µM,MAP2K1,-6.8 ± 0.1%
same,inhibition at 1 µM,MAP2K2,4.1%
same,inhibition at 1 µM,MARK2,-1.9 ± 0.1%
same,inhibition at 1 µM,MET[Y1235D],2.4 ± 0.1%
same,inhibition at 1 µM,MNK2,-4.3 ± 0.1%
same,inhibition at 1 µM,MST4,-2.1%
same,inhibition at 1 µM,NEK1,-18.3 ± 0.1%
same,inhibition at 1 µM,NEK2,-18.1 ± 0.6%
same,inhibition at 1 µM,NEK9,-23.1 ± 0.2%
same,inhibition at 1 µM,NuaK1,-2.5%
same,inhibition at 1 µM,PAK1,-5.8 ± 0.2%
same,inhibition at 1 µM,PDK1,-5.4 ± 0.1%
same,inhibition at 1 µM,PHKG1,-15 ± 0.4%
same,inhibition at 1 µM,PHKG2,-10 ± 0.1%
same,inhibition at 1 µM,PKACa,-0.8%
same,inhibition at 1 µM,PKCe,7.6 ± 0.1%
same,inhibition at 1 µM,PKCg,17.2%
same,inhibition at 1 µM,PLK1,5.7 ± 0.3%
same,inhibition at 1 µM,RAF1,-1.1 ± 0.1%
same,inhibition at 1 µM,SGK3,6.2 ± 0.1%
same,inhibition at 1 µM,SRC,2.7%
same,inhibition at 1 µM,TYK2,-0.1%
same,inhibition at 1 µM,TYRO3,-14.8 ± 0.2%
same,inhibition at 1 µM,p38a,-13.3 ± 0.3%
